From US11919908B2, “Substituted pyrrolo[2,3-d]pyrimidine compounds as JAK2 V617F inhibitors” (Incyte Corporation, priority 2020, dated 2024)

Columns and labels:
[1] = biological target: T1, pseudo-kinase domain (JH2) of human V617F mutant JAK2 (Homo sapiens, UniProt O60674, F794H/V617F/W659A/W777A); assay: JAK2 LanthaScreen JH2-V617F Binding Assay; conditions: 50 nM Fluorescent JAK2-JH2 Tracer, 1 hour at 25° C.
T1 construct: pseudo-kinase domain (JH2, amino-acids 536-812 with 3 surface mutations W659A, W777A, F794H); His (C); purchased BPS Bioscience 79498; host or cells: baculovirus expression system
Experimental: (§1) Example C. JAK2 LanthaScreen JH2-V617F Binding Assay JAK2 JH2-V617F binding assay utilizes pseudo-kinase domain (JH2, amino-acids 536-812 with 3 surface mutations […]) of human V617F mutant JAK2 expressed as C-terminal His-Avi-tagged, biotinylated protein in a baculovirus expression system (BPS Bioscience, Catalog #79498). The assay was conducted in black 384-well polystyrene plates in a final reaction volume of 20 μL. JAK2 JH2-V617F (0.26 nM) was incubated with compounds (100 nL serially diluted in DMSO) in the presence of 50 nM Fluorescent JAK2-JH2 Tracer (MedChem Express Catalog #HY-102055) and 0.25 nM Streptavidin-Tb cryptate (Cisbio Part #610SATLB) in assay buffer (50 mM Tris, pH=7.5, 10 mM MgCl2, 0.01% Brij-35, 0.1% BSA, 1 mM EGTA, 5% Glycerol and 5 mM DTT). Non-specific binding was accessed in the presence of 2 mM ATP. After incubation for 1 hour at 25° C., LanthaScreen signals were read on a PHERAstar FS plate reader (BMG LABTECH). Data was analyzed with IDBS XLfit and GraphPad Prism 5.0 software using a four parameter dose response curve to determine IC50 for each compound.

[2] = biological target: T2, pseudo-kinase domain (JH2) of human Wild Type JAK2 (Homo sapiens, UniProt O60674, F794H/W659A/W777A); assay: JAK2 LanthaScreen JH2-WT Binding Assay; conditions: 50 nM Fluorescent JAK2-JH2 Tracer, 1 hour at 25° C.
T2 construct: pseudo-kinase domain (JH2, amino-acids 536-812 with 3 surface mutations W659A, W777A, F794H); His (C); purchased BPS Bioscience 79463; host or cells: baculovirus expression system
Experimental: as §1, with “Example B.” for “Example C.”, “LanthaScreen JH2-WT” for “LanthaScreen JH2-V617F”, “JAK2 JH2-WT” for “JAK2 JH2-V617F”, “human Wild Type” for “human V617F mutant”, “Catalog #79463).” for “Catalog #79498).”, “JAK2 JH2-WT (0.145” for “JAK2 JH2-V617F (0.26”

[3] = biological target: T3, catalytic domain (JH1) of human JAK2 (Homo sapiens, UniProt O60674); assay: JAK2 LanthaScreen JH1 Binding Assay; conditions: 50 nM Fluorescent JAK2-JH1 Tracer, 2 hours at 25° C.
T3 construct: catalytic domain (JH1, amino acids 826-1132) of human JAK2; FLAG (N); purchased Carna Biosciences 08-445-20N; host or cells: baculovirus expression system
Experimental: Example A. JAK2 LanthaScreen […] Binding Assay JAK2 JH1 binding assay utilizes catalytic domain (JH1, amino acids 826-1132) of human JAK2 expressed as N-terminal FLAG-tagged, biotinylated protein in a baculovirus expression system (Carna Biosciences, Product #08-445-20N). The assay was conducted in black 384-well polystyrene plates in a final reaction volume of 20 μL. JAK2 JH1 (1.5 nM) was incubated with compounds (100 nL serially diluted in DMSO) in the presence of 50 nM Fluorescent JAK2-JH1 Tracer and 0.5 nM Streptavidin-Tb cryptate (Cisbio Part #610SATLB) in assay buffer (50 mM Tris, pH=7.5, 10 mM MgCl2, 0.01% Brij-35, 0.1% BSA, 1 mM EGTA, 5% Glycerol and 5 mM DTT). Non-specific binding was accessed in the presence of 2 mM ATP. After incubation for 2 hours at 25° C., LanthaScreen signals were read on a PHERAstar FS plate reader (BMG LABTECH). Data was analyzed with IDBS XLfit and GraphPad Prism 5.0 software using a four parameter dose response curve to determine IC50 for each compound.

T1 sequence (O60674 536-812 V617F/W659A/W777A/F794H): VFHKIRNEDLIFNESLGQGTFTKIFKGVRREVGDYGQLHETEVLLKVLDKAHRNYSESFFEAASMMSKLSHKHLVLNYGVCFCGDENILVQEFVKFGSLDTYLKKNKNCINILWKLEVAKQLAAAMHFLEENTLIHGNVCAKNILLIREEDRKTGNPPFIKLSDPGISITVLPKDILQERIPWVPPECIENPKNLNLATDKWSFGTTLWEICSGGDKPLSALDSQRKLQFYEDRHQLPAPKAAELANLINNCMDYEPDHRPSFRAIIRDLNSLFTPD
T2 sequence (O60674 536-812 W659A/W777A/F794H): as the sequence (O60674 536-812 V617F/W659A/W777A/F794H) above, with F82V counted along it
T3 sequence (O60674 826-1132): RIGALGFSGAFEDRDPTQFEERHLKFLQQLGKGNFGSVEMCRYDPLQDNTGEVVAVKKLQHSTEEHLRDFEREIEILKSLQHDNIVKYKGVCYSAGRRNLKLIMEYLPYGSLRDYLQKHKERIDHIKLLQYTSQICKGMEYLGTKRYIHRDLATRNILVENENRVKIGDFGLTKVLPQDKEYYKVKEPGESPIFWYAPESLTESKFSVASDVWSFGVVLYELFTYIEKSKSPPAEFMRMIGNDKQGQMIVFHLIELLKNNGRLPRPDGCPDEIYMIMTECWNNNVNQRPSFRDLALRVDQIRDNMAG

Row | SMILES | IC50 [1] [nM] | IC50 [2] [nM] | IC50 [3] [nM]
1 | CN(C)S(=O)(=O)c1ccc(-c2[nH]c3nc(N)[nH]c(=O)c3c2-c2ccc(C#N)cc2)cc1 [Example 39, 4-(2-Amino-5-(4-cyanophenyl)-4-oxo-4,7-dihydro-3H-pyrrolo[2,3-d]pyrimidin-6-yl)-N,N-dimethylbenzene sulfonamide] | 1000 to 2500 | 500 to 1000 | > 2500
2 | COc1c(Cl)cccc1-c1c(-c2ccc(S(=O)(=O)N(C)C)cc2)[nH]c2nc(N)[nH]c(=O)c12 [Example 40, 4-(2-Amino-5-(3-chloro-2-methoxyphenyl)-4-oxo-4,7-dihydro-3H-pyrrolo[2,3-d]pyrimidin-6-yl)-N,N-dimethylbenzene sulfonamide] | > 2500 | > 2500 | > 2500
3 | CN(C)S(=O)(=O)c1ccc(-c2[nH]c3nc(N)[nH]c(=O)c3c2-c2cccc3c2OCC3)cc1 [Example 41, 4-(2-Amino-5-(2,3-dihydrobenzofuran-7-yl)-4-oxo-4,7-dihydro-3H-pyrrolo[2,3-d]pyrimidin-6-yl)-N,N-dimethylbenzene sulfonamide] | 100 to 500 | 100 to 500 | > 2500
4 | CN(C)S(=O)(=O)c1ccc(-c2[nH]c3nc(N)[nH]c(=O)c3c2-c2cccc3c2OCO3)cc1 [Example 44, 4-(2-Amino-5-(benzo[d] [1,3]dioxol-4-yl)-4-oxo-4,7-dihydro-3H-pyrrolo[2,3-d]pyrimidin-6-yl)-N,N-dimethylbenzene sulfonamide] | 100 to 500 | 100 to 500 | > 2500
5 | CN(C)S(=O)(=O)c1ccc(-c2[nH]c3nc(N)[nH]c(=O)c3c2-c2ccnn2C)cc1 [Example 46, 4-(2-Amino-5-(1-methyl-1H-pyrazol-5-yl)-4-oxo-4,7-dihydro-3H-pyrrolo[2,3-d]pyrimidin-6-yl)-N,N-dimethylbenzenesulfonamide] | > 2500 | > 2500 | > 2500
6 | CN(C)S(=O)(=O)c1ccc(-c2[nH]c3nc(N)[nH]c(=O)c3c2C2=CCCC2)cc1 [Example 47, 4-(2-Amino-5-(cyclopent-1-en-1-yl)-4-oxo-4,7-dihydro-3H-pyrrolo[2,3-d]pyrimidin-6-yl)-N,N-dimethylbenzenesulfonamide] | 100 to 500 | 100 to 500 | 100 to 500
7 | CN(C)S(=O)(=O)c1ccc(-c2[nH]c3nc(N)[nH]c(=O)c3c2-c2cccc3c2OCC(=O)N3)cc1 [Example 48, 4-(2-Amino-4-oxo-5-(3-oxo-3,4-dihydro-2H-benzo[b][1,4]oxazin-8-yl)-4,7-dihydro-3H-pyrrolo[2,3-d]pyrimidin-6-yl)-N,N-dimethylbenzenesulfonamide] | 100 to 500 | 100 to 500 | > 2500
8 | CN(C)S(=O)(=O)c1ccc(-c2[nH]c3nc(N)[nH]c(=O)c3c2-c2cccc3c2OCCN3)cc1 [Example 49, 4-(2-Amino-5-(3,4-dihydro-2H-benzo[b][1,4]oxazin-8-yl)-4-oxo-4,7-dihydro-3H-pyrrolo[2,3-d]pyrimidin-6-yl)-N,N-dimethylbenzenesulfonamide] | 500 to 1000 | 500 to 1000 | > 2500
9 | COc1nn(Cc2ccc(C(=O)O)cc2)cc1-c1c(-c2ccc(S(=O)(=O)N(C)C)cc2)[nH]c2nc(N)[nH]c(=O)c12 [Example 50] | ≤ 100 | ≤ 100 | > 2500
10 | CN(C)S(=O)(=O)c1ccc(-c2[nH]c3nc(N)[nH]c(=O)c3c2-c2cnn(Cc3cccc(C(=O)O)c3)c2)cc1 [Example 51, 3-((4-(2-amino-6-(4-(N,N-dimethylsulfamoyl)phenyl)-4-oxo-4,7-dihydro-3H-pyrrolo[2,3-d]pyrimidin-5-yl)-1H-pyrazol-1-yl)methyl)benzoic acid] | 500 to 1000 | 500 to 1000 | 1000 to 2500
11 | COc1ccccc1-c1c(-c2ccc(CN3CCC(S(C)(=O)=O)CC3)cc2)[nH]c2nc(N)[nH]c(=O)c12 [Example 53] | 100 to 500 | 100 to 500 | > 2500
12 | COc1ccccc1-c1c(-c2ccc(C(=O)N3CCOCC3)cc2)[nH]c2nc(N)[nH]c(=O)c12 [Example 54, 2-Amino-5-(2-methoxyphenyl)-6-(4-(morpholine-4-carbonyl)phenyl)-3,7-dihydro-4H-pyrrolo[2,3-d]pyrimidin-4-one] | 500 to 1000 | 500 to 1000 | > 2500
13 | CCc1c(-c2ccccc2)[nH]c2nc(N)[nH]c(=O)c12 [Example 55, 2-Amino-5-ethyl-6-phenyl-3,7-dihydro-4H-pyrrolo[2,3-d]pyrimidin-4-one] | > 2500 | > 2500 | > 2500

Results, then the molecule that gave them:

Row | IC50 [1] [nM] | IC50 [2] [nM] | IC50 [3] [nM] | SMILES
14 | 1000 to 2500 | > 2500 | > 2500 | CN(C)S(=O)(=O)c1ccc(-c2[nH]c3nc(N)[nH]c(=O)c3c2-c2cnn(C3CCOCC3)c2)cc1 [Example 37, 4-(2-Amino-4-oxo-5-(1-(tetrahydro-2H-pyran-4-yl)-1H-pyrazol-4-yl)-4,7-dihydro-3H-pyrrolo[2,3-d]pyrimidin-6-yl)-N,N-dimethylbenzene sulfonamide]
15 | 100 to 500 | 100 to 500 | 500 to 1000 | CN(C)S(=O)(=O)c1ccc(-c2[nH]c3nc(N)[nH]c(=O)c3c2-c2ccccc2)cc1 [Example 38, 4-(2-Amino-4-oxo-5-phenyl-4,7-dihydro-3H-pyrrolo[2,3-d]pyrimidin-6-yl)-N,N-dimethylbenzene sulfonamide]
16 | 500 to 1000 | 500 to 1000 | > 2500 | COc1ccc(-c2c(-c3ccc(S(=O)(=O)N(C)C)cc3)[nH]c3nc(N)[nH]c(=O)c23)c(OC)c1 [Example 42, 4-(2-Amino-5-(2,4-dimethoxyphenyl)-4-oxo-4,7-dihydro-3H-pyrrolo[2,3-d]pyrimidin-6-yl)-N,N-dimethylbenzene sulfonamide]
17 | 1000 to 2500 | 1000 to 2500 | > 2500 | COc1cccc(-c2c(-c3ccc(S(=O)(=O)N(C)C)cc3)[nH]c3nc(N)[nH]c(=O)c23)c1OC [Example 43, 4-(2-Amino-5-(2,3-dimethoxyphenyl)-4-oxo-4,7-dihydro-3H-pyrrolo[2,3-d]pyrimidin-6-yl)-N,N-dimethylbenzene sulfonamide]
18 | > 2500 | 1000 to 2500 | > 2500 | CN(C)S(=O)(=O)c1ccc(-c2[nH]c3nc(N)[nH]c(=O)c3c2-c2cccc(CN)c2)cc1 [Example 45, 4-(2-Amino-5-(3-(aminomethyl)phenyl)-4-oxo-4,7-dihydro-3H-pyrrolo[2,3-d]pyrimidin-6-yl)-N,N-dimethylbenzenesulfonamide]
19 | 100 to 500 | 100 to 500 | > 2500 | CN(C)S(=O)(=O)c1ccc(-c2[nH]c3nc(N)[nH]c(=O)c3c2-c2cnn(Cc3ccc(C(=O)O)cc3)c2)cc1 [Example 52, 4-((4-(2-amino-6-(4-(N,N-dimethylsulfamoyl)phenyl)-4-oxo-4,7-dihydro-3H-pyrrolo[2,3-d]pyrimidin-5-yl)-1H-pyrazol-1-yl)methyl)benzoic acid]
